Measurements taken from paper PMC11757143, “Generation and characterization of OX40-ligand fusion protein that agonizes OX40 on T-Lymphocytes” (Frontiers in Immunology, 2025).

What was measured:
[1] = system: antigen-specific T cell responses of draining lymph node cells; assay: Antigen recall responses of dLN cells from TNP-KLH/CFA-immunized mice (cytokine ELISA, MTT proliferation); assay type: in vivo, C57BL/6 mice; conditions: 20 µg i.p. on days 1 and 3, TNP-KLH/CFA day 0, dLN day 7, KLH recall 3 days
Text: The following reagents were used for the measurement of cytokines from T cells: anti-IL-2 (JES6-1A12, 503701, BioLegend, San Diego, CA, U.S.A.) capture antibody, biotin-anti-IL-2 (JES6-5H4, 503803, BioLegend) detection antibody, anti-IFN-γ (R4-6A2, 505702, BioLegend) capture antibody, biotin-anti-IFN-γ (XMG1.2, 505804, BioLegend) detection antibody, anti-IL-4 (11B11, 504101, BioLegend) capture antibody, biotin-anti-IL-4 (BVD6-24G2, 504201, BioLegend) detection antibody, anti-IL-17A (TC11-18H10.1, 506901, BioLegend) capture antibody, biotin-anti-IL-17A (TC11-8H4, 507001, BioLegend) detection antibody, HRP streptavidin (405210, BioLegend), and 3,3’,5,5’-tetramethylbenzidine (TMB, 421101, BioLegend). The absorbance was measured at 450 nm or 620 nm using a FilterMax F5 (Molecular Devices, San Jose, CA, U.S.A.).
Groups of C57BL/6 mice from both male and female mice aged between 5 and 15 weeks were immunized subcutaneously at the footpad with 100 µg of 2,4,6-trinitrophenyl-conjugated keyhole limpet hemocyanin (TNP-KLH) emulsified in complete Freund’s adjuvant (CFA) (F5881, Merck) on day 0. Recombinant proteins in PBS were injected intraperitoneally on days 1 and 3. […] Cell viability on day 3 was assessed with a 3-(4,5-dimethylthiazol-2-yl)-2,5-diphenyl-tetrazolium (MTT) (M2128, Merck) assay.

[2] = molecular target: T1, OX40-Fc (Mus musculus, UniProt P47741); parameters: method as in PMID 36450532, PMID 37371066; conditions: previous studies; ref [23], [24]; cited from earlier work
T1 construct: made in house
T1 sequence (P47741 20-211 limits assumed): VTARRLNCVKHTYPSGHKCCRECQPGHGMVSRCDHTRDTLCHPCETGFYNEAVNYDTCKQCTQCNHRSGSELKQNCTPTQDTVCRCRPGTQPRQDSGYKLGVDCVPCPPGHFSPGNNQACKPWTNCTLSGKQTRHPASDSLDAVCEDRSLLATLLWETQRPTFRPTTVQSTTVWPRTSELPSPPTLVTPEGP

| Substance | antigen-specific T cell responses (recall IFN-γ, IL-17, IL-4 production and proliferation of dLN cells) [1] | specific interaction with OX40 [2] |
| --- | --- | --- |
| Fc-MBL-OX40L: Fusion protein: human IgG1 Fc (hinge, CH2, CH3), PA, MBL collagen-like domain, OX40L THD | failed to effectively stimulate in vivo T cell responses |  |
| MBL-OX40L: Fusion protein: PA peptide tag, collagen-like domain of mannose-binding lectin, extracellular TNF homology domain of mouse OX40L |  | specifically interact with OX40 |
